# ChEMBL document CHEMBL2029327, “Synthetic menthyl α/β-(1→6)-diglucopyranosides-induced cell death in human leukemia cells is dependent on caspases” (Bioorg Med Chem Lett, 2012)
# Active and inactive are the calls of the source. No cut-off for these calls is given here.
# Columns and labels:
# HL-60 [1] = assay: Cytotoxicity against human HL60 cells after 72 hrs by MTT assay; type: functional, cell-based; settings: for IC50: HL-60, 72 h
# U-937 [2] = assay: Cytotoxicity against human U937 cells after 72 hrs by MTT assay; type: functional, cell-based; settings: for IC50: U-937, 72 h
# MOLT-3 [3] = assay: Cytotoxicity against human MOLT3 cells after 72 hrs by MTT assay; type: functional, cell-based; settings: for IC50: MOLT-3, 72 h
# MCF7 [4] = assay: Cytotoxicity against human MCF7 cells after 72 hrs by MTT assay; type: functional, cell-based; settings: for IC50: MCF7, 72 h
# HL-60 [5] = assay: Cytotoxicity against human HL60 cells assessed as morphological changes at 10 uM after 24 hrs by inverted phase-contrast microscopic analysis; type: functional, cell-based
# U-937 [6] = assay: Cytotoxicity against human U937 cells assessed as morphological changes at 10 uM after 24 hrs by inverted phase-contrast microscopic analysis; type: functional, cell-based
# MOLT-3 [7] = assay: Cytotoxicity against human MOLT3 cells assessed as morphological changes at 10 uM after 24 hrs by inverted phase-contrast microscopic analysis; type: functional, cell-based
# MCF7 [8] = assay: Cytotoxicity against human MCF7 cells assessed as morphological changes at 10 uM after 24 hrs by inverted phase-contrast microscopic analysis; type: functional, cell-based
# HL-60 [9] = assay: Cytotoxicity against human HL60 cells assessed as reduction in cell number at 10 uM after 24 hrs by inverted phase-contrast microscopic analysis; type: functional, cell-based
# U-937 [10] = assay: Cytotoxicity against human U937 cells assessed as reduction in cell number at 10 uM after 24 hrs by inverted phase-contrast microscopic analysis; type: functional, cell-based
# MOLT-3 [11] = assay: Cytotoxicity against human MOLT3 cells assessed as reduction in cell number at 10 uM after 24 hrs by inverted phase-contrast microscopic analysis; type: functional, cell-based
# HL-60 [12] = assay: Induction of apoptosis in human HL60 cells assessed as increase in chromatin condensation at 10 uM after 24 hrs by Hoechst staining-based flow cytometric analysis; type: functional, cell-based
# U-937 [13] = assay: Induction of apoptosis in human U937 cells assessed as increase in chromatin condensation at 10 uM after 24 hrs by Hoechst staining-based flow cytometric analysis; type: functional, cell-based
# HL-60 [14] = assay: Induction of apoptosis in human HL60 cells assessed as […] hydrolysis of chromatin at 10 uM after 24 hrs by agarose gel electrophoretic analysis; type: functional, cell-based
# MOLT-3 [15] = assay: Induction of apoptosis in human MOLT3 cells assessed as increase in chromatin condensation at 10 uM after 24 hrs by Hoechst staining-based flow cytometric analysis; type: functional, cell-based
# U-937 [16] = assay: Induction of apoptosis in human U937 cells assessed as […] hydrolysis of chromatin at 10 uM after 24 hrs by agarose gel electrophoretic analysis; type: functional, cell-based
# MOLT-3 [17] = assay: Induction of apoptosis in human MOLT3 cells assessed as […] hydrolysis of chromatin at 10 uM after 24 hrs by agarose gel electrophoretic analysis; type: functional, cell-based
# HL-60 [18] = assay: Induction of apoptosis in human HL60 cells assessed as increase in apoptotic cells at 30 uM after 24 hrs by propidium iodide staining-based flow cytometric analysis relative to control; type: functional
# U-937 [19] = assay: Induction of apoptosis in human U937 cells assessed as increase in apoptotic cells at 30 uM after 24 hrs by propidium iodide staining-based flow cytometric analysis relative to control; type: functional
# HL-60 [20] = assay: Induction of apoptosis in human HL60 cells assessed as cleavage of procaspase 3 at 10 to 30 uM after 24 hrs by Western blot analysis; type: functional, cell-based
# U-937 [21] = assay: Induction of apoptosis in human U937 cells assessed as cleavage of procaspase 3 at 10 to 30 uM after 24 hrs by Western blot analysis; type: functional, cell-based
# HL-60 [22] = assay: Induction of apoptosis in human HL60 cells assessed as cleavage of procaspase 6 at 10 to 30 uM after 24 hrs by Western blot analysis; type: functional, cell-based
# U-937 [23] = assay: Induction of apoptosis in human U937 cells assessed as cleavage of procaspase 6 at 10 to 30 uM after 24 hrs by Western blot analysis; type: functional, cell-based
# HL-60 [24] = assay: Induction of apoptosis in human HL60 cells assessed as cleavage of procaspase 7 at 10 to 30 uM after 24 hrs by Western blot analysis; type: functional, cell-based
# U-937 [25] = assay: Induction of apoptosis in human U937 cells assessed as cleavage of procaspase 7 at 10 to 30 uM after 24 hrs by Western blot analysis; type: functional, cell-based
# HL-60 [26] = assay: Induction of apoptosis in human HL60 cells assessed as cleavage of procaspase 9 at 10 to 30 uM after 24 hrs by Western blot analysis; type: functional, cell-based
# U-937 [27] = assay: Induction of apoptosis in human U937 cells assessed as cleavage of procaspase 9 at 10 to 30 uM after 24 hrs by Western blot analysis; type: functional, cell-based
# HL-60 [28] = assay: Induction of apoptosis in human HL60 cells assessed as release of cytochrome c release from mitochondria at 10 to 30 uM after 24 hrs by Western blot analysis; type: functional, cell-based
# U-937 [29] = assay: Induction of apoptosis in human U937 cells assessed as release of cytochrome c release from mitochondria at 10 to 30 uM after 24 hrs by Western blot analysis; type: functional, cell-based
# HL-60 [30] = assay: Induction of apoptosis in human HL60 cells assessed as change in Bcl-2 protein level at 10 to 30 uM after 24 hrs by Western blot analysis; type: functional, cell-based
# U-937 [31] = assay: Induction of apoptosis in human U937 cells assessed as change in Bcl-2 protein level at 10 to 30 uM after 24 hrs by Western blot analysis; type: functional, cell-based
# HL-60 [32] = assay: Induction of apoptosis in human HL60 cells assessed as increase in Bax protein level at 10 to 30 uM after 24 hrs by Western blot analysis; type: functional, cell-based
# U-937 [33] = assay: Induction of apoptosis in human U937 cells assessed as increase in Bax protein level at 10 to 30 uM after 24 hrs by Western blot analysis; type: functional, cell-based
# HL-60 [34] = assay: Induction of apoptosis in human HL60 cells assessed as decrease in Bid protein level at 10 to 30 uM after 24 hrs by Western blot analysis; type: functional, cell-based
# U-937 [35] = assay: Induction of apoptosis in human U937 cells assessed as decrease in Bid protein level at 10 to 30 uM after 24 hrs by Western blot analysis; type: functional, cell-based
# HL-60 [36] = assay: Induction of apoptosis in human HL60 cells assessed as increase in caspase 3/7-mediated cleavage of DEVD-pNA at 30 uM after 24 hrs relative to control; type: functional
# U-937 [37] = assay: Induction of apoptosis in human U937 cells assessed as increase in caspase 3/7-mediated cleavage of DEVD-pNA at 30 uM after 24 hrs relative to control; type: functional
# MOLT-3 [38] = assay: Induction of apoptosis in human MOLT3 cells assessed as increase in caspase 3/7-mediated cleavage of DEVD-pNA at 30 uM after 24 hrs relative to control; type: functional
# HL-60 [39] = assay: Induction of apoptosis in human HL60 cells assessed as increase in caspase 8-mediated cleavage of IETD-pNA at 30 uM after 24 hrs; type: functional, cell-based
# U-937 [40] = assay: Induction of apoptosis in human U937 cells assessed as increase in caspase 8-mediated cleavage of IETD-pNA at 30 uM after 24 hrs; type: functional, cell-based
# MOLT-3 [41] = assay: Induction of apoptosis in human MOLT3 cells assessed as increase in caspase 8-mediated cleavage of IETD-pNA at 30 uM after 24 hrs; type: functional, cell-based
# HL-60 [42] = assay: Induction of apoptosis in human HL60 cells assessed as increase in caspase 9-mediated cleavage of LEHD-pNA at 30 uM after 24 hrs; type: functional, cell-based
# U-937 [43] = assay: Induction of apoptosis in human U937 cells assessed as increase in caspase 9-mediated cleavage of LEHD-pNA at 30 uM after 24 hrs; type: functional, cell-based
# MOLT-3 [44] = assay: Induction of apoptosis in human MOLT3 cells assessed as increase in caspase 9-mediated cleavage of LEHD-pNA at 30 uM after 24 hrs; type: functional, cell-based
# HL-60 [45] = assay: Induction of apoptosis in human HL60 cells assessed as increase in hypodiploid cells at 30 uM after 24 hrs by propidium iodide staining-based flow cytometric analysis in presence of 100 uM caspase inhibition Z-VAD-fmk; type: functional, cell-based
# HL-60 [46] = assay: Cell cycle in human HL60 cells at 30 uM after 24 hrs by flow cytometric analysis in presence of 100 uM caspase inhibition Z-VAD-fmk; type: functional, cell-based
# HL-60 [47] = assay: Induction of apoptosis in human HL60 cells assessed as decrease in ROS level up to 12 hrs by H2-DCF-DA dye-based flow cytometric analysis; type: functional, cell-based
smiles,measurement,setting,value
CC(C)[C@@H]1CC[C@@H](C)C[C@H]1O[C@@H]1O[C@H](CO[C@@H]2O[C@H](COC(=O)c3ccc(Br)cc3)[C@@H](OC(=O)c3ccc(Br)cc3)[C@H](O)[C@H]2O)[C@@H](O)[C@H](O)[C@H]1O,Activity,HL-60 [1],Dose-dependent effect
same,IC50,HL-60 [1],7 µM
same,Activity,U-937 [2],Dose-dependent effect
same,IC50,U-937 [2],9.2 µM
same,Activity,MOLT-3 [3],Dose-dependent effect
same,IC50,MOLT-3 [3],11.4 µM
same,Activity,MCF7 [4],Dose-dependent effect
same,IC50,MCF7 [4],12.9 µM
same,Activity,HL-60 [5],Active
same,Activity,U-937 [6],Active
same,Activity,MOLT-3 [7],Active
same,Activity,MCF7 [8],Active
same,Activity,HL-60 [9],Active
same,Activity,U-937 [10],Active
same,Activity,MOLT-3 [11],Active
same,Activity,HL-60 [12],Active
same,Activity,U-937 [13],Active
same,Activity,HL-60 [14],Active
same,Activity,MOLT-3 [15],Active
same,Activity,U-937 [16],Active
same,Activity,MOLT-3 [17],Active
CC(C)[C@H]1CC[C@H](C)C[C@@H]1O[C@@H]1O[C@H](CO[C@@H]2O[C@H](COC(=O)c3ccc(Br)cc3)[C@@H](OC(=O)c3ccc(Br)cc3)[C@H](O)[C@H]2O)[C@@H](O)[C@H](O)[C@H]1O,Activity,HL-60 [1],Dose-dependent effect
same,IC50,HL-60 [1],14.9 µM
same,Activity,U-937 [2],Dose-dependent effect
same,IC50,U-937 [2],14.1 µM
same,Activity,MOLT-3 [3],Dose-dependent effect
same,IC50,MOLT-3 [3],12.6 µM
same,Activity,MCF7 [4],Dose-dependent effect
same,IC50,MCF7 [4],16 µM
same,Activity,HL-60 [5],Active
same,Activity,U-937 [6],Active
same,Activity,MOLT-3 [7],Active
same,Activity,MCF7 [8],Active
same,Activity,HL-60 [9],Active
same,Activity,U-937 [10],Active
same,Activity,MOLT-3 [11],Active
same,Activity,HL-60 [12],Active
same,Activity,U-937 [13],Active
same,Activity,HL-60 [14],Active
same,Activity,MOLT-3 [15],Active
same,Activity,U-937 [16],Active
same,Activity,MOLT-3 [17],Active
same,Activity,HL-60 [18],56.9%
same,Activity,U-937 [19],23.2%
same,Activity,HL-60 [20],Active
same,Activity,U-937 [21],Active
same,Activity,HL-60 [22],Active
same,Activity,U-937 [23],Active
same,Activity,HL-60 [24],Active
same,Activity,U-937 [25],Active
same,Activity,HL-60 [26],Active
same,Activity,U-937 [27],Active
same,Activity,HL-60 [28],Active
same,Activity,U-937 [29],Active
same,Activity,HL-60 [30],inactive
same,Activity,U-937 [31],inactive
same,Activity,HL-60 [32],Active
same,Activity,U-937 [33],Active
same,Activity,HL-60 [34],Active
same,Activity,U-937 [35],Active
same,fold change (FC),HL-60 [36],>7
same,fold change (FC),U-937 [37],>7
same,fold change (FC),MOLT-3 [38],>7
same,Activity,HL-60 [39],Active
same,Activity,U-937 [40],Active
same,Activity,MOLT-3 [41],Active
same,Activity,HL-60 [42],Active
same,Activity,U-937 [43],Active
same,Activity,MOLT-3 [44],Active
same,Activity,HL-60 [45],inactive
same,Activity,HL-60 [46],inactive
same,Activity,HL-60 [47],inactive
